Results: patent publication US20150335678A1, “METHOD OF ACTIVATING STEM CELLS IN AN ANIMAL AND THE USE OF CHLORINE DIOXIDE FOR PREPARING MEDICINES FOR ACTIVATING STEM CELLS IN AN ANIMAL” (priority 2012, published 2015)

Assays:
[1] = system: BrdU-positive cells (neural stem cells and neural progenitor cells); experiment: BrdU-positive and BrdU-positive/nestin-positive (proliferating) cells in the SVZ region; type: in vivo, Sprague-Dawley rats; details: for number of BrdU-positive cells in the SVZ region, proliferation (mean±SD): BrdU on day 5, 6, 12, 13, 19, 20
Procedure: Male Sprague-Dawley rats with the age of 12 weeks and weight of 250^˜280 g were used in the experiment after acclimating for a week.
A middle cerebral artery occlusion model was first established in compliance with the method of Longa E Z et al. (Longa E Z, et al. Reversible middle cerebral artery occlusion without craniectomy in rats. Stroke 20:84-91, 1989). More specifically, 0.36 g/kg of 10% chloral hydrate was administered intraperitoneally to rats which had been fasted for 12 hours (although given free access to water) to anesthetize the rats. Next, a midline incision was made in the neck to expose the right common carotid artery. Then, the internal carotid artery and external carotid artery were separated, the posterior carotid artery, which is a branch of the external carotid artery, and the thyroidea arteria were coagulated and severed, the external carotid artery was ligated at the branch of the lingual artery and maxillary artery, a small puncture was formed in the external carotid artery, 4-0 Nylon suture was passed through the common carotid artery from the puncture, and gradually inserted into the internal carotid artery until there was resistance. The length of the Nylon suture was about 18^˜20 mm from the branch of the common carotid artery. As a result of occluding the middle cerebral artery with Nylon suture, an ischemic state was applied for 2 hours to create a middle cerebral artery occlusion model.
A cerebral ischemia/reperfusion injury model was established by removing the Nylon suture from the middle cerebral artery of the occlusion model and following reperfusion of blood.
The first solution was a mixed solution made of sodium chlorite with the concentration of 7.47% and sodium chloride with the concentration of 1.59% with deionized water; the second solution was made of citric acid with the concentration of 16.7% with deionized water. Same volume of solutions were taken out from different vessels with different volumes and mixed up. Allow the solution to mix for 3-5 minutes and dilute it five times with normal saline, and then filter it with 0.22 μm filter membrane of double-deck. The solution was immediately put into injector. The solution was prepared once being used.
Treatment group (120 rats): A cerebral ischemia/reperfusion injury model was established for the rats already. To administer chlorine dioxide solution everytime that prepared from procedure (3) through carotid artery after the second day the model has established, once a day for total ten days.
On day 5, 6, 12, 13, 19 and 20 after the model established, 50 mg/kg of 5-bromodeoxyuridine was injected intraperitoneally into 30 rats in each group. Because BrdU is a thymidine analog, it can incorporate into the DNA of cells during the course of cell proliferation (DNA synthesis). Thus, cell proliferation can be analyzed by detecting the amount of intracellular BrdU. The rats were autopsied on day 7, 14 and 21 after the model established for preparation of frozen brain sections. The presence of BrdU-positive cells by immunochemical stain, and the presence of BrdU-positive/nestin-positive cells by double-immunofluorescent stain in the SVZ region were analyzed.
The presence of BrdU-positive cells was analyzed using mouse anti-rat BrdU monoclonal antibody.
The presence of BrdU-positive/nestin-positive cells was analyzed by double-immunofluorescent stain using a combination of primary antibody of goat anti-rat BrdU polyclonal antibody and secondary antibody of FITC-labeled rabbit anti-goat antibody, and a combination of primary antibody of mouse anti-rat nestin monoclonal antibody and secondary antibody of Rho-labeled rabbit anti-mouse antibody.
BRt(%)=(Bt−St)/(Mt−St)×100

[2] = system: postoperative complications of lung cancer; experiment: Postoperative complications of lung cancer (Example 12); type: in vivo, human; details: 15 patients
Procedure: The subjects consisted of 30 lung cancer patients of stage I, II III who had operations on lung cancer just now. The subjects were randomly assigned to treatment group and control group with 15 patients respectively.
[…] acid aqueous solution with a ph value of 3 was made by citric acid and deionized water. 500 ml aqueous solution of 30% was made with deionized water and sodium chlorite, 500 ml aqueous solution of 50% was made with deionized water and citric acid. To mix the above solutions in a conical beaker of 2 L capacity and then put them in the prepared acid aqueous solution by a plastic tube with bottle stopper. The activating agent of stem cells comprising chlorine dioxide was made by bubbling chlorine dioxide in the acid aqueous solution for 40 minutes and the solution was contained in 150 plastic bottles with 100 ml capacity and stored in the fridge.
Each patient in treatment group received 10 bottles of the solution. Open the plastic bottle cap and do alternate nostril breathing for 2-10 minutes on day 2 after the operation with a bottle a day for three times, then cover the bottleneck once finished. No special nursing means were applied in control group, then observe the complications a month after the operation.

rat = details: ClO2 276.5 mg/L, cited from earlier work
chronic eczema = experiment: Chronic eczema patients, topical solution (Example 7); type: in vivo, human
Procedure: The subjects consisted of 12 patients with chronic eczema and average seven years of course of disease. External used medicines and oral administration, such as glucocorticoid and antihistamine drug were used discontinuously, but were poor in treatment. Activating agent was administered according to the following methods:
To smear solution over the affected parts immediately, once a day for consecutive 10 to 15 days, and then stop administration. If the eczema relapsed, reusing it again.

[3] = 12 cases traced for eight months

SMILES: [O][Cl+][O-] [chlorine dioxide solution, chlorine dioxide]
- BRt: BrdU-positive cells (proliferation) in treatment group relative to model group = 100% ([1]; Day 7): 157.4%
- number of BrdU-positive cells in the SVZ region, proliferation (mean±SD) ([1]; Day 7, model group 136.56 ± 9.93, sham 52.8 ± 3.85, diluted solution via carotid artery once a day, ten days): 184.61 ± 12.3 No. cells/mm2
- BRt: BrdU-positive cells (proliferation) in treatment group relative to model group = 100% ([1]; Day 14): 156.9%
- number of BrdU-positive cells in the SVZ region, proliferation (mean±SD) ([1]; Day 14, model group 328.6 ± 12.5, sham 33.9 ± 2.95): 496.2 ± 30.6 No. cells/mm2
- BRt: BrdU-positive cells (proliferation) in treatment group relative to model group = 100% ([1]; Day 21): 141.2%
- number of BrdU-positive cells in the SVZ region, proliferation (mean±SD) ([1]; Day 21, model group 279.9 ± 12.8, sham 23.9 ± 1.95): 385.3 ± 20.9 No. cells/mm2
- presence of proliferating nestin-positive/BrdU-positive cells in the SVZ region ([1]; treatment group, double-immunofluorescent stain): confirmed
- Serious complications (No.) ([2]; a month after lung cancer operation, ClO2 gas bubbled into pH 3 citric acid solution, nostril breathing 2-10 minutes three times a day, 10 bottles, control 4 (26.7%)): 1
- No complication (No.) ([2]; a month after operation, inhalation, control 5 (33.3%)): 9
- Minor complications (No.) ([2]; a month after operation, inhalation, control 6 (40%)): 5
- Serious complications (%) ([2]; a month after operation, inhalation, control 26.7%): 6.7%
- No complication (%) ([2]; a month after operation, inhalation, control 33.3%): 60%
- Minor complications (%) ([2]; a month after operation, inhalation, control 40%): 33.3%
- accumulative toxicity classification of aqueous solution (rat; NaClO2 200 mg/L, NaClO3): non-obvious accumulative toxic
- toxicity classification of aqueous solution (rat; NaClO2 and NaClO3 200 mg/L, ClO2 mixed solution total concentration 553 mg/L): actually non-toxic
- cases that recurred once and did not recur after treatment for two times (chronic eczema; [3]): four
- cases that recurred twice and did not recur after the third treatment (chronic eczema; [3]): two
- cases with no recurrence (chronic eczema; [3]): six
- clinical sign and pathological change of tissue after treatment (chronic eczema; 12 chronic eczema patients): became normal
- time until stabbing pain and itching disappeared after administration (chronic eczema; 12 chronic eczema patients, NaClO2 8%/NaCl 2% + citric acid 12% 1:1, smeared once a day 10 to 15 days): about half an hour
- time until the affected parts scabbed (chronic eczema; 12 chronic eczema patients, topical once a day): two to five days
